{"source": "ChEMBL document CHEMBL1149482", "about": "“Syntheses of triazole-modified zanamivir analogues via click chemistry and anti-AIV activities” (Bioorg Med Chem Lett, 2006)", "note": "The source made the active and inactive calls. The calls are words filed in the database; no cut-off is given here.", "data": [{"tested_on": "MDCK", "assay": "Antiviral activity against avian influenza virus H5N1 measured as protective rate against MDCK cells at 50 uM by neutral red uptake assay", "type": "functional", "details": "not given", "values": [{"smiles": "CC(=O)N[C@H]1[C@H]([C@H](O)[C@H](O)CO)OC(C(=O)O)=C[C@@H]1n1cc(CCO)nn1", "Activity": "14.5%"}, {"smiles": "CCCc1ccc(-c2cn([C@H]3C=C(C(=O)O)O[C@@H]([C@H](O)[C@H](O)CO)[C@@H]3NC(C)=O)nn2)cc1", "Activity": "22.1%"}, {"smiles": "CC(=O)N[C@H]1[C@H]([C@H](O)[C@H](O)CO)OC(C(=O)O)=C[C@@H]1n1cc(CN)nn1", "Activity": "inactive"}, {"smiles": "CC(=O)N[C@H]1[C@H]([C@H](O)[C@H](O)CO)OC(C(=O)O)=C[C@@H]1n1cc(CN2CCOCC2)nn1", "Activity": "17.3%"}, {"smiles": "CC(=O)N[C@H]1[C@H]([C@H](O)[C@H](O)CO)OC(C(=O)O)=C[C@@H]1n1cc(-c2ccc(-c3ccccc3)cc2)nn1", "Activity": "19.1%"}, {"smiles": "CCC(O)c1cn([C@H]2C=C(C(=O)O)O[C@@H]([C@H](O)[C@H](O)CO)[C@@H]2NC(C)=O)nn1", "note": "(some centres undefined)", "Activity": ">61.4%"}, {"smiles": "CCC(O)c1cn([C@H]2C=C(C(=O)OCCC(C)C)O[C@@H]([C@H](O)[C@H](O)CO)[C@@H]2NC(C)=O)nn1", "note": "(some centres undefined)", "Activity": "8.9%"}, {"smiles": "CCc1ccc(-c2cn([C@H]3C=C(C(=O)O)O[C@@H]([C@H](O)[C@H](O)CO)[C@@H]3NC(C)=O)nn2)cc1", "Activity": "34.4%"}, {"smiles": "CC(=O)N[C@H]1[C@H]([C@H](O)[C@H](O)CO)OC(C(=O)O)=C[C@@H]1n1cc(CCCO)nn1", "Activity": "6.3%"}, {"smiles": "CC(=O)N[C@H]1[C@H]([C@H](O)[C@H](O)CO)OC(C(=O)O)=C[C@@H]1n1cc(-c2ccccn2)nn1", "Activity": "inactive"}, {"smiles": "COC(=O)C1=C[C@H](n2cc(C(=O)OC)nn2)[C@@H](NC(C)=O)[C@H]([C@H](O)[C@H](O)CO)O1", "Activity": "9.9%"}, {"smiles": "CCCOc1ccc(-c2cn([C@H]3C=C(C(=O)O)O[C@@H]([C@H](O)[C@H](O)CO)[C@@H]3NC(C)=O)nn2)cc1", "Activity": "40.2%"}, {"smiles": "CC(=O)N[C@H]1[C@H]([C@H](O)[C@H](O)CO)OC(C(=O)O)=C[C@@H]1NC(=N)N", "note": "[ZANAMIVIR]", "Activity": "86.1%"}, {"smiles": "CC(=O)N[C@H]1[C@H]([C@H](O)[C@H](O)CO)OC(C(=O)O)=C[C@@H]1n1cc(C2CC2)nn1", "Activity": "8.9%"}, {"smiles": "CC(=O)N[C@H]1[C@H]([C@H](O)[C@H](O)CO)OC(C(=O)O)=C[C@@H]1n1cc(COc2ccccc2)nn1", "Activity": "34.8%"}, {"smiles": "CC(=O)N[C@H]1[C@H]([C@H](O)[C@H](O)CO)OC(C(=O)O)=C[C@@H]1n1cc(-c2ccccc2)nn1", "Activity": "18.7%"}, {"smiles": "CC(=O)N[C@H]1[C@H]([C@H](O)[C@H](O)CO)OC(C(=O)O)=C[C@@H]1n1cc(-c2ccc(F)cc2)nn1", "Activity": "inactive"}]}, {"tested_on": "MDCK", "assay": "Antiviral activity against avian influenza virus H5N1 in MDCK cells measured as reduction in infected cells relative to control", "type": "functional, cell-based", "details": "Canis lupus familiaris", "units": {"EC50": "µM"}, "values": [{"smiles": "CCC(O)c1cn([C@H]2C=C(C(=O)O)O[C@@H]([C@H](O)[C@H](O)CO)[C@@H]2NC(C)=O)nn1", "note": "(some centres undefined)", "EC50": 6.4}, {"smiles": "CC(=O)N[C@H]1[C@H]([C@H](O)[C@H](O)CO)OC(C(=O)O)=C[C@@H]1NC(=N)N", "note": "[ZANAMIVIR]", "EC50": 2.8}]}]}
